This assay relates to M. tuberculosis H37Rv growth inhibition. The assay is described as follows: M. tuberculosis H37Rv growth inhibitors, H37Rv strain (AID 1626). Conditions: for IC90: measured here: IC90 against H37Rv; for CC50: measured here: Vero cell cytotoxicity.

The structures appear in SMILES notation.

As usually defined, the IC50 is the concentration that inhibits the measured activity by half. In general, IC90 refers to the concentration at which the effect reaches the 90% level. As a reminder, the CC50 is the concentration at which the toxic effect on the cells reaches its halfway point. Low readings indicate greater toxicity to the cells, high ones lower toxicity to the cells. As to `COc1cc(/C=C/c2ccc3c(Br)cc(Br)c(O)c3n2)ccc1O`, the IC50 was below 0.195 µM, the IC90 stood at 0.345 µM and the CC50 was determined as 14.5 µM.
For `CO[C@H]1C=CO[C@@]2(C)Oc3c(C)c(O)c4c(O)c(c5c(c4c3C2=O)NC2(CCN(CC(C)C)CC2)N=5)=NC(=O)C(C)=CC=C[C@H](C)[C@H](O)[C@@H](C)[C@@H](O)[C@@H](C)[C@H](OC(C)=O)[C@@H]1C` the same measures were below 0.195 µM, below 0.195 µM and above 40 µM.
For the compound `COc1ccc(-c2nnc(SC(C(=O)c3c[nH]c4ccccc34)c3ccccc3)n2N)cc1OC` (stereo not drawn), the IC90 was above 100 µM and the CC50 was above 40 µM.
Take `Cn1c(O)c(C=Nc2ccc3c(c2)CCC3)c(=O)n(C)c1=O`: the 90% effect concentration (IC90) is above 100 µM.
Turning to `Clc1ccc(-n2nnnc2Sc2ncnc3sccc23)cc1`, the IC50 is 63.4 µM, the IC90 was above 100 µM and the CC50 worked out at 10.5 µM.
With `CC1CC(C)CN(C(=O)COC(=O)c2cc3ccccc3cc2O)C1` (stereo not drawn), the half-maximal inhibitory concentration (IC50) is 0.592 µM and the 90% effect concentration (IC90) turned out to be 4.29 µM.
As for `N#Cc1ccc(/C=C/C(=O)c2ccccc2)cc1`, the half-inhibitory concentration (IC50) is 5.89 µM, the IC90 is 7.86 µM and the cytotoxic concentration (CC50) is above 40 µM.
For `Cc1sc2nc(CN3CCOCC3)[nH]c(=S)c2c1C` the same measures were 13.3 µM, above 100 µM and above 40 µM.
In the case of `Cc1cccc(OCc2nnc(SCC(=O)OC3CCCCC3)o2)c1`, the IC50 was 1.25 µM and the IC90 turned out to be 5.46 µM.
`CCCOC(=O)c1ccc(NC(=O)c2cnccn2)cc1`: the IC50 is 15 µM and the IC90 is above 100 µM.
With `O=C(COc1ccc2c(C(F)(F)F)cc(=O)oc2c1)NCc1cccs1`, the half-maximal inhibitory concentration (IC50) was 14.8 µM and the IC90 is above 100 µM.
As for `CCOc1ccc(CN2CCN(CC(O)Cn3c4ccccc4c4ccccc43)CC2)cc1` (stereo not drawn), the half-maximal inhibitory concentration (IC50) was 4.35 µM, the IC90 was 6.2 µM and the cytotoxic concentration (CC50) worked out at 13.6 µM.
In the same order, the values of `CC[C@H]1CC2CN3CCc4c([nH]c5c([C@H]6C[C@H]7[C@H](CC)CN(C)[C@@H](Cc8c6[nH]c6ccccc86)[C@H]7C(=O)OC)c(OC)ccc45)C(C(=O)OC)(C2)C13` are 5.85 µM, 7.6 µM and 20.8 µM.
For `COc1c(F)c(F)c(C(=O)Nc2ccc(N3CCN(Cc4ccccc4)CC3)cc2)c(F)c1F` the same measures were 35.9 µM, above 100 µM and 27.5 µM.
The compound `CCOC(=O)N1CCN=C1SCc1ccc(C(F)(F)F)cc1` returned a concentration for an effect of 90% (IC90) above 100 µM.
Regarding `CCOc1ccc(NCc2nnc(SCc3ccc(Cl)cc3)n2-c2ccccc2)cc1`, the half-maximal cytotoxic concentration (CC50) was above 40 µM.
For `CCC(/C=C1\Sc2ccc(OC)cc2N1CCO)=C\c1sc2ccc(OC)cc2[n+]1CCO`, the half-maximal inhibitory concentration (IC50) was 7.29 µM and the IC90 is 10.2 µM.
Consider `COc1ccccc1-c1nnc(NC(=O)C2=COCCO2)o1`, for which the half-maximal inhibitory concentration (IC50) was 8.99 µM, the 90% effect concentration (IC90) was found to be 15.5 µM and the cytotoxic concentration (CC50) is above 40 µM.
For the compound `CCOC(=O)c1ccc(N=Cc2nc3ccccc3n2C)cc1`, the 50% inhibitory concentration (IC50) was 12.7 µM and the IC90 is above 100 µM.
In the case of `COc1ccc(N2CCN(C(=O)CN3CCN(c4nc(-c5ccc(F)cc5)cs4)CC3)CC2)cc1`, the CC50 is above 40 µM.
As to `Cc1[nH][nH]c(=O)c1C(c1ccc(-c2ccc(Cl)cc2)o1)c1c(C)[nH][nH]c1=O`, the IC50 is 3.69 µM, the concentration for an effect of 90% (IC90) was determined as 17 µM and the CC50 is above 40 µM.
In the same order, the values of `O=C(Nc1ccc(N2CCN(C(=O)c3ccccc3)CC2)cc1)c1ccc([N+](=O)[O-])o1` are below 0.195 µM, below 0.195 µM and 1.63 µM.
Take `CCOc1ccc(N=Cc2c(O)n(-c3ccc(C)c(C)c3)c(=O)[nH]c2=O)cc1`: the IC50 was below 0.195 µM and the IC90 was above 100 µM.
On to `CCOc1ccc2nc(NC(=O)C(CC)Sc3nc(C)cc(=O)[nH]3)sc2c1` (stereo not drawn), for which the IC50 was 35.7 µM, the IC90 is above 100 µM and the half-maximal cytotoxic concentration (CC50) is above 40 µM.
In the same order, the values of `Cn1cnc([N+](=O)[O-])c1S(=O)(=O)c1ccc(Cl)cc1` are 8.35 µM, 10.7 µM and 23.4 µM.
Consider `CCc1cc2cc(C(=O)Nc3ccc(F)cc3)sc2s1`, for which the half-maximal inhibitory concentration (IC50) was 0.512 µM and the IC90 was 0.79 µM.
With `C/C(=N\N=C(/N)SC1CC(=O)N(c2ccc(Br)cc2)C1=O)c1cccs1` (stereo not drawn), the 50% inhibitory concentration (IC50) is 9.24 µM, the IC90 is 16.8 µM and the 50% cytotoxic concentration (CC50) is above 40 µM.
For `O=C(Nc1nnc(-c2ccc(Cl)s2)o1)C1CCCCC1` the same measures were 3.84 µM, above 100 µM and above 40 µM.
In the same order, the values of `CCN(CC)c1ccc(N=Cc2ccc([N+](=O)[O-])o2)cc1` are 8.8 µM, 45.6 µM and above 40 µM.
For `Nc1c(C(=O)NCc2ccccc2)c2nc3ccccc3nc2n1CCCN1CCOCC1` the same measures were 12.7 µM, 17.1 µM and above 40 µM.
Consider `COc1cc(OC)c2c(-c3ccccc3)cc(=O)oc2c1C(CCN1CCCC(C)C1)c1ccc(N(C)C)cc1` (stereo not drawn), for which the IC50 is 4.18 µM, the IC90 was determined as 5.41 µM and the CC50 came to 17.1 µM.
Compound `COC(=O)c1nc(-c2ccc3c(n2)C(=O)C(N)=C(OC)C3=O)c(N)c(-c2ccc(OC)c(OC)c2O)c1C` displayed an IC90 above 100 µM and a half-maximal cytotoxic concentration (CC50) of 1.35 µM.
`CCCCCCCCSc1nnc(CSc2nc3nc(C)cc(C)n3n2)o1`: the IC50 is 0.635 µM and the IC90 was 24.6 µM.
`CC(C)(C)NC(=O)COC(=O)c1snc(C(=O)NC2CCCCC2)c1N`: the IC50 was 1.84 µM, the IC90 was found to be 3.78 µM and the CC50 is above 40 µM.
Take `Cc1[nH]nc2c1C(c1ccc(-c3ccc(Cl)cc3)o1)C(C#N)=C(N)O2` (stereo not drawn): the IC50 is 0.749 µM, the IC90 came to 91.5 µM and the CC50 was above 40 µM.
For `CCCc1ccc(C2C3=C(CC(C)(C)CC3=O)NC3=C2C(=O)c2ccccc23)cc1` (stereo not drawn), the concentration for half-maximal inhibition (IC50) is 5.54 µM, the 90% effect concentration (IC90) is above 100 µM and the CC50 is above 40 µM.
With `COC(=O)c1ccnc(SCC(=O)c2ccccc2)c1`, the IC50 was 15.8 µM and the concentration for an effect of 90% (IC90) worked out at 26.6 µM.
As for `O=[N+]([O-])c1ccc(-c2nc(C(Cl)Cl)c3ccccc3n2)cc1`, the IC50 was below 0.195 µM, the IC90 was below 0.195 µM and the CC50 is below 0.078 µM.
For the compound `C[n+]1c2n(c3ccccc31)N=C(c1cc(C(C)(C)C)c(O)c(C(C)(C)C)c1)CS2`, the IC50 is 2.54 µM, the 90% effect concentration (IC90) is 3.14 µM and the CC50 is above 40 µM.
Take `CCOC(=O)CNC(=O)CSc1nc(-c2cccc(C)c2)ns1`: the half-maximal inhibitory concentration (IC50) was 1.5 µM and the 90% effect concentration (IC90) came to 8.29 µM.
Consider `Cc1ccn2c(Nc3ccccc3)c(-c3ccccn3)nc2c1`, for which the IC50 was 2.88 µM, the IC90 amounted to 3.3 µM and the half-maximal cytotoxic concentration (CC50) was 2.12 µM.
In the same order, the values of `Nc1nc(Nc2cccc(Cl)c2)nc(NCc2ccco2)c1[N+](=O)[O-]` are 29.9 µM, above 100 µM and above 40 µM.
For `COC(=O)c1c(NC(=O)CC2SC(N)=NC2=O)sc2c1CCC(C(C)(C)C)C2` (stereo not drawn) the same measures were 16.4 µM, 24 µM and 35 µM.

These data come from PubChem BioAssay AID1626 (SRMLSC, 2009).
